Measured values from ChEMBL document CHEMBL1143059, “Structure-based design, synthesis and preliminary evaluation of selective inhibitors of dihydrofolate reductase from Mycobacterium tuberculosis” (Bioorg Med Chem, 2007).

What was measured:
[1] = target: T1, Dihydrofolate reductase (Mycobacterium tuberculosis) (UniProt P9WNX1)
T1 sequence (whole entry): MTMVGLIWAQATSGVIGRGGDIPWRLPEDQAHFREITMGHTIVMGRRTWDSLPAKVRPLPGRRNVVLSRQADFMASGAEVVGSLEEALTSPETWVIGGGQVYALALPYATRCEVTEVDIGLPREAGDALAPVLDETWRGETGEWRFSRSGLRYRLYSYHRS
Description: Inhibition of Mycobacterium tuberculosis DHFR expressed in Saccharomyces cerevisiae TB5 assessed as yeast growth inhibition after 3 days by radial spoke assay

[2] = target: T2, Dihydrofolate reductase (Homo sapiens) (UniProt P00374)
T2 sequence (whole entry): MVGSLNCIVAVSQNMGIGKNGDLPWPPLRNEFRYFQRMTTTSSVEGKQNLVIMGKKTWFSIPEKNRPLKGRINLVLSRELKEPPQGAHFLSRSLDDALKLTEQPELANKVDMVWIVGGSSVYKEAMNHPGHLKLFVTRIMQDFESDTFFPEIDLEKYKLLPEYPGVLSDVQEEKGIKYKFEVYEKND
Description: Inhibition of human DHFR expressed in Saccharomyces cerevisiae TB5 assessed as yeast growth inhibition after 3 days by radial spoke assay

[3] = target: T3, Dihydrofolate reductase (Saccharomyces cerevisiae S288c) (UniProt P07807)
T3 sequence (whole entry): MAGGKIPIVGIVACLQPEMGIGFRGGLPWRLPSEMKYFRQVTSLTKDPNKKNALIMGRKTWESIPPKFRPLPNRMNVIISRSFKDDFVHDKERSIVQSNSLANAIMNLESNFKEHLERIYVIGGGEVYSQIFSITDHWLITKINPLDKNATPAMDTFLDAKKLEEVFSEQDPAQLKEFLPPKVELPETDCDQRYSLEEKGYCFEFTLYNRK
Description: Inhibition of yeast DHFR expressed in Saccharomyces cerevisiae TB5 assessed as yeast growth inhibition by after 3 days by radial spoke assay

Compound | IZ [1] | IZ [2] | IZ [3]
Nc1nc(N)c(-c2ccc(Br)cc2)c([C@H](O)[C@H](O)CO)n1 | 5 mm | 5 mm | 5 mm
Nc1nc(N)c(-c2ccc(Cl)cc2)c(CC[C@@H](O)[C@@H](O)CO)n1 | 9 mm | 7 mm | 7 mm
Nc1nc(N)c(-c2ccc(Cl)cc2)c([C@H](O)[C@H](O)CO)n1 | 5 mm | 5 mm | 5 mm
Nc1nc(N)c(-c2ccc(Cl)c(Cl)c2)c(CCCCCO)n1 | 9 mm | 9 mm | 9 mm
Nc1nc(N)c(-c2ccccc2)c(CC[C@@H](O)[C@@H](O)CO)n1 | 11 mm | 6 mm | 6 mm
Nc1nc(N)c(-c2ccccc2)c([C@H](O)[C@H](O)CO)n1 | 5 mm | 5 mm | 5 mm
Nc1nc(N)c(-c2ccc(Cl)c(Cl)c2)c([C@H](O)[C@H](O)CO)n1 | 8 mm | 8 mm | 7 mm
Nc1nc(N)c(-c2ccc(Cl)cc2)c(CCCCCO)n1 | 8 mm | 8 mm | 8 mm
Nc1nc(N)c(-c2ccc(Br)cc2)c(CC[C@@H](O)[C@@H](O)CO)n1 | 7 mm | 6 mm | 8 mm
Nc1nc(N)c(-c2ccccc2)c(CC[C@H](O)[C@@H](O)CO)n1 | 9 mm | 8 mm | 8 mm
Nc1nc(N)c(-c2ccccc2)c(CCCCCO)n1 | 7 mm | 7 mm | 9 mm
Nc1nc(N)c(-c2ccc(Cl)c(Cl)c2)c(CC[C@@H](O)[C@@H](O)CO)n1 | 8 mm | 8 mm | 8 mm
Nc1nc(N)c(-c2ccc(Br)cc2)c(CCCCCO)n1 | 8 mm | 8 mm | 9 mm
Nc1nc(N)c(-c2ccc(Br)cc2)c(CC[C@H](O)[C@@H](O)CO)n1 | 8 mm | 5 mm | 6 mm
Nc1nc(N)c(-c2ccc(Cl)cc2)c(CC[C@H](O)[C@@H](O)CO)n1 | 7 mm | 7 mm | 6 mm
Nc1ncc(-c2ccccc2)c(CCc2ccccc2)n1 | 5 mm | 5 mm | 5 mm
CCc1nc(N)nc(N)c1-c1cccc(Cl)c1 | 5 mm | 6 mm | 5 mm
